# Measured values as given in patent US9089499B2, “Para-coumaric acid or para-hydroxycinnamic acid derivatives and their use in cosmetic or dermatological compositions” (BASF Beauty Care Solutions France S.A.S., priority 2005, dated 2015).
# Like-named read-outs stand apart in the source and are kept apart here.
# Target: T1, Human tyrosinase (Homo sapiens, UniProt P14679)
# T1 construct: endogenous in cells; host or cells: normal human melanocytes (abdominal surgery; several donors of fair, brown and black phototypes)
# T1 sequence (P14679 19-529): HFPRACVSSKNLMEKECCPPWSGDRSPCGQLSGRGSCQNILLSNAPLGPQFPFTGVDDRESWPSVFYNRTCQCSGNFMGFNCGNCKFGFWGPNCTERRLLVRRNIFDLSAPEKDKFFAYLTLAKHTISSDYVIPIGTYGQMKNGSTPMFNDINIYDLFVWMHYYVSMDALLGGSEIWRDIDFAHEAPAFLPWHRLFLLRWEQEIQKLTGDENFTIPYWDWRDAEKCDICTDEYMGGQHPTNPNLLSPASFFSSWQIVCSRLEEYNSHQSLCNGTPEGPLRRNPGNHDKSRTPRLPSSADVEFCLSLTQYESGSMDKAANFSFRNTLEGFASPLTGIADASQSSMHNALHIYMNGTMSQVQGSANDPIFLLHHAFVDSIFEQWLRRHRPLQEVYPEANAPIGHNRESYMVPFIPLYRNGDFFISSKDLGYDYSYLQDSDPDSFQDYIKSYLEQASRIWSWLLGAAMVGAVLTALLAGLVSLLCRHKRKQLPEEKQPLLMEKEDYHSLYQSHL
# Assay: Inhibition of human tyrosinase after 24 h application to normal human melanocytes in monolayer
# Format: cell-based
# Details: for inhibition at 1000 µM: 10^−3 M
# Description: Normal human melanocytes (obtained from abdominal surgery) are seeded in 24-well plates at a rate of 80 000 cells per well. They are cultured to confluence and the active agents are applied for 24 hours to the culture media. After 24 hours, the media are removed and the melanocytes are detached via mechanical action. An extraction is performed via a thermal shock and the supernatants are then recovered and incubated with MBTH (Sigma) and L-dopa (Sigma). The OD at 490 nm is measured after 30 minutes, and the tyrosinase inhibition is calculated by relating the OD at 490 nm to the protein content (measured in each culture well) of the test relative to the ratio: OD 490 nm/protein concentration of the negative control (untreated control).
# The compounds derived from the examples mentioned above were tested on melanocytes derived from various donors but of fair phototype, according to the protocol described in Example 29. The donors tested are as follows: • donor S (donor tested in Example 12): • donor 1: • donor 2: • donor 3
# The compound derived from Example 1 is tested on cultures of melanocytes obtained from 2 donors of brown phototype and from one donor of black phototype. The protocol applied is that described in Example 29. […]
structure (smiles),measurement,setting,value
"COc1cc(/C=C/C(=O)NCCc2ccc(O)c(O)c2)ccc1O [Example 1, N-trans-feruloyldopamine]",inhibition at 100 µM,"10^−4M, 24 hours, read-out: Inhibition of human tyrosinase after application to normal human melanocytes, percentage of inhibition, Mean 10^−4M",62.3%
same,inhibition at 10 µM,"10^−5M, 24 hours, read-out: Inhibition of human tyrosinase after application to normal human melanocytes, percentage of inhibition, Mean 10^−5M",29.4%
same,inhibition at 1000 µM,"B103, Donor B, brown phototype, read-out: Inhibition of tyrosinase, Mean Donor B, 10^−3 M",87.2%
same,inhibition at 100 µM,"B104, Donor B, brown phototype, 10^−4 M, read-out: Inhibition of tyrosinase, Mean Donor B, 10^−4 M",65.8%
same,inhibition at 100 µM,"Donor 1, fair phototype, 10^−4 M, read-out: Inhibition of tyrosinase, Mean 10^−4 M, Donor 1",63.9%
same,inhibition at 10 µM,"Donor 1, fair phototype, 10^−5 M, read-out: Inhibition of tyrosinase, Mean 10^−5 M, Donor 1",35.8%
same,inhibition at 100 µM,"Donor 2, fair phototype, 10^−4 M, read-out: Inhibition of tyrosinase, Mean 10^−4 M, Donor 2",59.9%
same,inhibition at 10 µM,"Donor 2, fair phototype, 10^−5 M, read-out: Inhibition of tyrosinase, Mean 10^−5 M, Donor 2",12.9%
same,inhibition at 100 µM,"Donor 3, fair phototype, 10^−4 M, read-out: Inhibition of tyrosinase, Mean 10^−4 M, Donor 3",50.2%
same,inhibition at 10 µM,"Donor 3, fair phototype, 10^−5 M, read-out: Inhibition of tyrosinase, Mean 10^−5 M, Donor 3",18.9%
same,inhibition at 1000 µM,"Donor A, brown phototype, read-out: Inhibition of tyrosinase, Mean Donor A, 10^−3 M",99.4%
same,inhibition at 100 µM,"Donor A, brown phototype, 10^−4 M, read-out: Inhibition of tyrosinase, Mean Donor A, 10^−4 M",59.2%
same,inhibition at 10 µM,"Donor A, brown phototype, 10^−5 M, read-out: Inhibition of tyrosinase, Mean Donor A, 10^−5 M",29.3%
same,inhibition at 10 µM,"Donor B, brown phototype, 10^−5 M, read-out: Inhibition of tyrosinase, Mean Donor B, 10^−5 M",20.8%
same,inhibition at 100 µM,"Donor S, fair phototype, 10^−4 M, read-out: Inhibition of tyrosinase, Mean 10^−4 M, Donor S",62.3%
same,inhibition at 10 µM,"Donor S, fair phototype, 10^−5 M, read-out: Inhibition of tyrosinase, Mean 10^−5 M, Donor S",29.4%
